Experimental data as given in patent publication US20090306373A1, “4,7-DIHYDROTHIENO[2,3-B]PYRIDINE COMPOUNDS AND PHARMACEUTICAL COMPOSITIONS” (priority 2005, published 2009).

Test system: alpha-MyHC
Assay: alpha-MyHC cytoblot in neonatal rat ventricular myocytes (NRVM)
Type: cell-based
Conditions: Table 1, 72 hours; for Max Plateau: fitted maximum, percent fraction of low control (vehicle), in %
Procedure: In vitro activity of each compound is measured using the alpha-MyHC cytoblot process. Briefly, neonatal rat ventricular myocytes (NRVM) at 120,000 cells/ml in HyQ DME/High modified culture media supplemented with 10% charcoal/dextran treated FBS, 0.1% Nutridoma-SP, 1:100 MEM non-essential amino acids, 1:50 MEM amino acids solution w/o L-Gln, 1 mM sodium pyruvate and 1:100 P/S/G, are plated on gelatin coated sterile 384-well plates (Costar 3712) at 6,000 cells per well. Cells are incubated overnight at 37° C. in 5% CO2 100% humidity. Following overnight growth the media is changed to HyQ DME/High modified culture media supplemented with 0.3% Nutridoma-SP, 1:100 MEM non-essential amino acids, 1:50 MEM amino acids solution w/o L-Gln, 1 mM sodium pyruvate and 1:100 P/S/G. Cells are then dosed with serial dilutions of each compound in DMSO. Each concentration in the dose range is dosed in quadruplicate. Dosing is done in such a way so that the final DMSO concentration was 0.44%. Compound dilutions are 3-fold with the final top concentration of 10 uM. […] Following dosing, the cells are incubated for 72 hours at 37° C. in 5% CO2 100% humidity and then processed with the cytoblot method. Briefly, cell media is aspirated and cell monolayers washed with PBS and fixed with 100% methanol for 30 minutes. Fixed cells are then blocked with PBS, 0.05% Tween-20, 1% BSA, for 1 hour. Following blocking, cells are incubated with primary alpha-MyHC-specific antibody (1:30 dilution of BA-G5 hybridoma conditioned media, ATCC HB276) for 1 hour. Following incubation with the primary antibody, cells are washed with PBS, 0.05% Tween-20, 1% BSA and incubated with secondary antibody (1:1000 dilution, goat-anti-mouse HRP, Southern Biotech, 1031-05) for 1 hour. Following incubation with the secondary antibody, wells are washed and incubated in SuperSignal, West Dura HRP-luminescence substrate for 30 seconds under shaking at room temperature. Luminescence is measured using a Packard Fusion plate reader. […] RLU values are converted into percent fraction of low control and dose responses are fitted to a sigmoidal 4-parameter equation (XLFit, IDBS) where the EC50 and Max Plateau values were extracted. […] Max Plateau is the […] maximum value determined by the dose response fit.

EC50 (Rattus norvegicus, Ventricular myocyte, concentration giving 50% of maximum response)	SMILES	Max Plateau
–	CCC(=O)C1=C(CC)Nc2sc(C(=O)c3ccc(Cl)c(Cl)c3)c(N)c2C1c1ccccc1C (stereo not drawn) [Compound 56]	293.74 ± 50.82
–	CC(=O)C1=C(C)Nc2sc(C(=O)c3ccccc3Cl)c(N)c2C1c1ccccc1 (stereo not drawn) [Compound 57]	246.00 ± 16.33
–	CCC(=O)C1=C(CC)Nc2sc(C(=O)c3ccc(Cl)c(Cl)c3)c(N)c2C1c1cccc([N+](=O)[O-])c1 (stereo not drawn) [Compound 58]	232.20 ± 56.57
–	CCC(=O)C1=C(CC)Nc2sc(C(=O)c3ccc(Cl)c(Cl)c3)c(N)c2C1c1ccccc1[N+](=O)[O-] (stereo not drawn) [Compound 59]	152.77 ± 11.42
–	CCC(=O)C1=C(CC)Nc2sc(C(=O)c3ccc(Cl)c(Cl)c3)c(N)c2C1c1ccccc1C(F)(F)F (stereo not drawn) [Compound 60]	100.00 ± 0.00
–	CC(=O)C1=C(C)Nc2sc(C(=O)c3cccc(F)c3)c(N)c2C1c1ccccc1 (stereo not drawn) [Compound 61]	230.65 ± 55.61
–	COC(=O)c1cccc(C(=O)c2sc3c(c2N)C(c2ccccc2)C(C(C)=O)=C(C)N3)c1 (stereo not drawn) [Compound 62]	279.31 ± 67.94
–	CCC(=O)C1=C(CC)Nc2sc(C(=O)c3ccc(Cl)c(Cl)c3)c(N)c2C1c1c(F)cccc1F (stereo not drawn) [Compound 63]	230.07 ± 45.59
–	CCC(=O)C1=C(CC)Nc2sc(C(=O)c3cc(Cl)ccc3Cl)c(N)c2C1c1ccccc1 (stereo not drawn) [Compound 64]	281.39 ± 54.54
–	CC(=O)C1=C(C)Nc2sc(C(=O)c3cccc(C(=O)O)c3)c(N)c2C1c1ccccc1 (stereo not drawn) [Compound 65]	100.00 ± 0.00
–	CCC(=O)C1=C(CC)Nc2sc(C(=O)c3cccc(Cl)c3)c(N)c2C1c1ccccc1 (stereo not drawn) [Compound 66]	306.19 ± 54.21
–	CCC(=O)C1=C(CC)Nc2sc(C(=O)c3ccccc3F)c(N)c2C1c1ccccc1 (stereo not drawn) [Compound 67]	256.12 ± 53.66
–	CCC(=O)C1=C(CC)Nc2sc(C(=O)c3ccccc3)c(N)c2C1c1cccnc1 (stereo not drawn) [Compound 68]	175.88 ± 14.54
–	CCC(=O)C1=C(CC)Nc2sc(C(=O)c3ccccc3)c(N)c2C1c1c(F)cccc1F (stereo not drawn) [Compound 69]	221.36 ± 15.94
–	CCC(=O)C1=C(CC)Nc2sc(C(=O)c3ccc(Cl)cc3Cl)c(N)c2C1c1ccccc1 (stereo not drawn) [Compound 70]	191.97 ± 13.09
–	CCC(=O)C1=C(CC)Nc2sc(C(=O)c3ccc(F)c(F)c3)c(N)c2C1c1ccccc1 (stereo not drawn) [Compound 72]	223.99 ± 24.51
–	CCC(=O)C1=C(CC)Nc2sc(C(=O)c3cc(C(F)(F)F)cc(C(F)(F)F)c3)c(N)c2C1c1ccccc1 (stereo not drawn) [Compound 73]	205.27 ± 38.78
–	CCC(=O)C1=C(CC)Nc2sc(C(=O)c3cccc(C(=O)OC)c3)c(N)c2C1c1ccccc1 (stereo not drawn) [Compound 74]	262.81 ± 32.38
–	CCC(=O)C1=C(CC)Nc2sc(C(=O)c3ccc(Cl)c(Cl)c3)c(N)c2C1c1cccnc1 (stereo not drawn) [Compound 75]	226.71 ± 40.80
–	CCC(=O)C1=C(CC)Nc2sc(C(=O)c3cc(F)cc(F)c3)c(N)c2C1c1ccccc1 (stereo not drawn) [Compound 76]	230.70 ± 23.22
–	CCC(=O)C1=C(CC)Nc2sc(C(=O)c3cccc(C(=O)O)c3)c(N)c2C1c1ccccc1 (stereo not drawn) [Compound 77]	220.00 ± 10.00
–	CCC(=O)C1=C(CC)Nc2sc(C(=O)c3ccccc3)c(N)c2C1c1ccccc1F (stereo not drawn) [Compound 78]	269.77 ± 35.30
–	CCC(=O)C1=C(CC)Nc2sc(C(=O)c3ccc(F)cc3)c(N)c2C1c1ccccc1 (stereo not drawn) [Compound 79]	241.90 ± 15.79
–	CCC(=O)C1=C(CC)Nc2sc(C(=O)c3ccc(Cl)cc3)c(N)c2C1c1ccccc1 (stereo not drawn) [Compound 80]	226.13 ± 5.25

EC50 (Rattus norvegicus, Ventricular myocyte, concentration giving 50% of maximum response)	SMILES	Max Plateau
–	CCC(=O)C1=C(CC)Nc2sc(C(=O)c3ccc(Cl)c(Cl)c3)c(N)c2C1c1ccc(OC)cc1F (stereo not drawn) [Compound 81]	184.00 ± 15.51
–	CCC(=O)C1=C(CC)Nc2sc(C(=O)c3ccccc3Cl)c(N)c2C1c1ccccc1 (stereo not drawn) [Compound 82]	245.96 ± 30.73
–	CCC(=O)C1=C(CC)Nc2sc(C(=O)c3ccc(Cl)c(Cl)c3)c(N)c2C1c1ccc(O)cc1Cl (stereo not drawn) [Compound 83]	274.88 ± 44.56
–	CCC(=O)C1=C(CC)Nc2sc(C(=O)c3ccc(Cl)c(Cl)c3)c(N)c2C1c1cccc(F)c1 (stereo not drawn) [Compound 84]	242.72 ± 19.34
–	CCC(=O)C1=C(CC)Nc2sc(C(=O)c3ccc(Cl)c(Cl)c3)c(N)c2C1c1cccc2ccccc12 (stereo not drawn) [Compound 85]	105.90 ± 6.18
–	CCCC(=O)C1=C(CCC)Nc2sc(C(=O)c3ccc(Cl)c(Cl)c3)c(N)c2C1c1ccccc1 (stereo not drawn) [Compound 86]	131.26 ± 2.34
–	CCCC(=O)C1=C(CCC)Nc2sc(C(=O)c3ccc(Cl)c(Cl)c3)c(N)c2C1c1ccccc1F (stereo not drawn) [Compound 87]	187.66 ± 12.24
–	CCC(=O)C1=C(CC)Nc2sc(C(=O)c3ccc(Cl)c(Cl)c3)c(N)c2C1c1ccc2ccccc2c1 (stereo not drawn) [Compound 88]	113.45 ± 11.92
–	CCC(=O)C1=C(CC)Nc2sc(C(=O)c3ccc(Cl)c(C)c3)c(N)c2C1c1ccccc1 (stereo not drawn) [Compound 89]	230.09 ± 19.81
–	CCC(=O)C1=C(CC)Nc2sc(C(=O)c3cc(C(C)(C)C)c(O)c(C(C)(C)C)c3)c(N)c2C1c1ccccc1 (stereo not drawn) [Compound 90]	300.00 ± 0.00
–	CCCC(=O)C1=C(CCC)Nc2sc(C(=O)c3ccc(Cl)cc3Cl)c(N)c2C1c1ccccc1F (stereo not drawn) [Compound 91]	143.39 ± 20.69
–	CCCC(=O)C1=C(CCC)Nc2sc(C(=O)c3cc(Cl)ccc3Cl)c(N)c2C1c1ccccc1F (stereo not drawn) [Compound 92]	189.00 ± 25.40
–	CCCC(=O)C1=C(CCC)Nc2sc(C(=O)c3cc(Cl)ccc3Cl)c(N)c2C1c1ccccc1 (stereo not drawn) [Compound 94]	153.83 ± 13.14
–	CCCC(=O)C1=C(CCC)Nc2sc(C(=O)c3ccc(F)c(F)c3)c(N)c2C1c1ccccc1 (stereo not drawn) [Compound 95]	147.01 ± 6.43
–	CCC(=O)C1=C(CC)Nc2sc(C(=O)c3cccc([N+](=O)[O-])c3)c(N)c2C1c1ccccc1 (stereo not drawn) [Compound 96]	254.87 ± 72.67
–	CCC(=O)C1=C(CC)Nc2sc(C(=O)c3cccc([N+](=O)[O-])c3)c(N)c2C1c1ccccc1F (stereo not drawn) [Compound 97]	247.24 ± 38.88
–	CCC(=O)C1=C(CC)Nc2sc(C(=O)c3ccc(Cl)c(Cl)c3)c(N)c2C1c1ccnc(F)c1 (stereo not drawn) [Compound 98]	255.02 ± 32.01
–	CCC(=O)C1=C(CC)Nc2sc(C(=O)c3ccc(Cl)c(Cl)c3)c(N)c2C1c1ccnc(Cl)c1 (stereo not drawn) [Compound 99]	264.37 ± 33.84
–	CCC(=O)C1=C(CC)Nc2sc(C(=O)c3ccc(Cl)c(Cl)c3)c(N)c2C1c1cc(F)cc(F)c1 (stereo not drawn) [Compound 100]	262.04 ± 31.65
–	CCC(=O)C1=C(CC)Nc2sc(C(=O)c3ccc(F)c(F)c3)c(N)c2C1c1cc(F)cc(F)c1 (stereo not drawn) [Compound 101]	230.49 ± 17.13
–	CCC(=O)C1=C(CC)Nc2sc(C(=O)c3ccc(F)c(F)c3)c(N)c2C1c1ccnc(F)c1 (stereo not drawn) [Compound 102]	269.88 ± 36.90
–	CCC(=O)C1=C(CC)Nc2sc(C(=O)c3cccnc3)c(N)c2C1c1ccnc(F)c1 (stereo not drawn) [Compound 103]	254.65 ± 31.26
24.8 nM	CCC(=O)C1=C(CC)Nc2sc(C(=O)c3ccc(Cl)c(Cl)c3)c(N)c2C1c1ccncc1 (stereo not drawn) [Compound 104, 1-[3-amino-2-(3,4 dichloro-benzoyl)-6-ethyl-4 pyridin-4-yl-4,7 dihydro-thieno[2,3-b]pyridin-5-yl]-propan-1-one]	–
–	CCC(=O)C1=C(CC)Nc2sc(C(=O)c3ccccc3)c(N)c2C1c1cc(F)cc(F)c1 (stereo not drawn) [Compound 105]	273.18 ± 37.33
